One series relates to HUVEC. The series can be described thus: Antiproliferative activity against human HUVEC cells after 3 days. In kind it is functional, cell-based. Conditions: 72 h.
Series [1] concerns Rattus norvegicus. The series can be described thus: Inhibition of MetAP2 in Sprague-Dawley rat assessed as free MetAP2 level in liver at 3 mg/kg, po after 24 hrs by ELISA relative to vehicle-treated control. Set-up: dose 3 mg/kg. The class given is functional, organism-based. (In general: ELISA stands for enzyme-linked immunosorbent assay.)
The test system of series [2] is Rattus norvegicus. Put plainly: Inhibition of MetAP2 in Sprague-Dawley rat assessed as free MetAP2 level in whole blood at 3 mg/kg, po after 2 to 4 hrs by ELISA relative to vehicle-treated control. The class given is functional, organism-based. Set-up: dose 3 mg/kg.
The test system of series [3] is Rattus norvegicus. The series can be described thus: Inhibition of MetAP2 in Sprague-Dawley rat assessed as free MetAP2 level in thymus at 3 mg/kg, po after 24 hrs by ELISA relative to vehicle-treated control. Also noted: dose 3 mg/kg. The class given is functional, organism-based.
Series [4] concerns the target Methionine aminopeptidase 2 (Homo sapiens) (UniProt P50579). Put plainly: Inhibition of MetAP2 (unknown origin) using Met-AMC as substrate assessed as residual activity at 200 nM after 8 hrs.
Series [5] shares this target. Put plainly: Inhibition of MetAP2 (unknown origin) using Met-AMC as substrate in MES buffer at pH 6.5 at 200 nM after 8 hrs.
The target is the same in series [6]. Put plainly: Inhibition of MetAP2 (unknown origin) using Met-AMC as substrate in HEPES buffer at pH 7.5 at 200 nM after 8 hrs.
For another series, the system named is Plasma. The series can be described thus: Drug metabolism in rat plasma assessed as PPI-2458 formation at 4 degC after 1 hr by HPLC/MS/MS analysis. In kind it is ADME, cell-free.
Series [7] in a line: Stability of the compound in MES buffer at pH 6.5 after 8 hrs by LC-MS analysis. In kind it is physicochemical. The following applies: pH 6.5, 8 h.

The source made the active and inactive calls. No cut-off for these calls is given here.

Chain of Methionine aminopeptidase 2 (Homo sapiens) (P50579 2-478 limits assumed): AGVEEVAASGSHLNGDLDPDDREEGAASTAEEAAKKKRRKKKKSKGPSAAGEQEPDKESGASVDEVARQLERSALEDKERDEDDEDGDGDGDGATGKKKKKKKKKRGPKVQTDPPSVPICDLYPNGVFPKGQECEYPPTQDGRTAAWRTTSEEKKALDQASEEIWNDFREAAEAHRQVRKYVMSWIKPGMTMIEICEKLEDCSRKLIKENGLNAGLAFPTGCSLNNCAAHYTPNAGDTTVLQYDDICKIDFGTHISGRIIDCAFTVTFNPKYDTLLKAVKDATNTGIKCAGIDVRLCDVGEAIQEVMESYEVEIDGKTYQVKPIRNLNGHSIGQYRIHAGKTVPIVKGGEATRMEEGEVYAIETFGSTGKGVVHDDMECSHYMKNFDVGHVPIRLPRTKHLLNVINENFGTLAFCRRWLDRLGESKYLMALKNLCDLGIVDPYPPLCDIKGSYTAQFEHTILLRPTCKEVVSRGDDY

Usually IC50 stands for the concentration that inhibits the measured activity by half. Read a low IC50 as higher potency. `C=C([C@H](O)CC=C(C)C)[C@H]1[C@H](OC)[C@H](OC(=O)N[C@@H](C(N)=O)C(C)C)CC[C@]12CO2` showed an IC50 with HUVEC of 3.1 nM. In addition, the inhibition entry with Rattus norvegicus [1], with Rattus norvegicus [2] and in the series on Rattus norvegicus [3] was “Active” throughout. Moreover, the Activity in series [4] turned out to be 27%.

Regarding `CO[C@@H]1[C@H](OC(=O)N[C@@H](C(N)=O)C(C)C)CC[C@@]2(O)CO[C@](C)([C@H](O)CC=C(C)C)[C@@H]12`, the IC50 with HUVEC was greater than 30000 nM. Moreover, the inhibition entry in the series on Rattus norvegicus [1], in the series with Rattus norvegicus [2] and with Rattus norvegicus [3] was “inactive” each time. For the same compound, in series [4], the Activity was found to be 105%.

As for `CO[C@@H]1[C@H](OC(=O)N[C@@H](C(N)=O)C(C)C)CC[C@]2(O)CO[C@](C)([C@H](O)CC=C(C)C)[C@@H]12`, the IC50 with HUVEC was greater than 30000 nM. For the same compound, the inhibition result in the series with Rattus norvegicus [1], in the series on Rattus norvegicus [2] and in the series with Rattus norvegicus [3] was “inactive” throughout. Moreover, in series [4], the Activity was 107%.

Compound `CO[C@H]1[C@@H]([C@@]2(C)O[C@@H]2CC=C(C)C)[C@]2(CC[C@H]1OC(=O)N[C@@H](C(N)=O)C(C)C)CO2` came in with a concentration for half-maximal inhibition (IC50) with HUVEC of 0.18 nM. Also, the inhibition result (in the series with Rattus norvegicus [1]; in series [5]; in series [6]; in the series on Rattus norvegicus [2]; in the series on Rattus norvegicus [3]) was “Active” each time. Also, the Activity in [4] amounted to 3%.

Consider `C=C([C@H](O)CC=C(C)C)[C@H]1[C@H](OC)[C@H](OC(=O)N[C@@H](C(N)=O)C(C)C)CC[C@]1(O)CCl`, for which inhibition in the series with HUVEC was half-maximal at 3.3 nM (IC50). The inhibition result in the series with Rattus norvegicus [1], in the series on Rattus norvegicus [2] and with Rattus norvegicus [3] was “Active” throughout. Further, the Activity in series [4] was 58%.

`CO[C@@H]1[C@H](OC(=O)N[C@@H](C(N)=O)C(C)C)CC[C@](O)(CCl)[C@H]1[C@@]1(C)O[C@@H]1CC=C(C)C` yielded an IC50 in the series with HUVEC of 0.15 nM. The Stability entry in the series with Plasma is “Unstable”; in series [7], “Stable”. Further, the inhibition result (in the series on Rattus norvegicus [1]; in series [6]; with Rattus norvegicus [2]; in the series on Rattus norvegicus [3]) was “Active” in each case. Moreover, the inhibition result in [5] was “inactive”. Also, the Activity in series [4] was determined as 6%.

These data come from ChEMBL document CHEMBL2331401, “Orally active fumagillin analogues: transformations of a reactive warhead in the gastric environment” (ACS Med Chem Lett, 2013).
